We go through 33 compounds from patent US20230339866A1, “Quinazoline compounds and the use thereof in the treatment of cancer” (TROBIO THERAPEUTICS PTY LTD, priority 2020, published 2023).

SMILES strings stand for the structures. Where only a bound is given, the exact number is not on record here.

Experiment [1] deals with A549 (NSCLC). The experiment in a line: Anti-proliferative activity (Cell-Titre luminescence) against A549 non-small cell lung cancer cells. It is filed as cell-based. The conditions noted are these: Homo sapiens, A549, 72 h, 72 h exposure, Cell-Titre luminescent reagent. The method, then: (§1) The ability of compounds of the invention to inhibit the proliferation of cancer cells representative of non-small cell lung cancer and ovarian cancer (Table 2), pancreatic cancer, colorectal cancer and prostate cancer (Table 3) was assessed. Briefly, a predetermined number of cells as calculated from cell growth assays for each of the cell lines employed were seeded into their respective culture medium (using ATCC culture parameters—http://www.atcc.org) and cultured for 24 h at 37° C. and 5% CO2 in 96-well culture plates. Once attached, each cell line was then exposed to various concentrations of each respective analogue (30, 10, 3, 1, 0.3 and 0.1 μM), cultured for a further 72 h and exposed to Cell-Titre luminescent reagent (100 μL/well) for a further 30 min. Luminescence was captured using an EnVision multilabel reader and the data for each analogue concentration compared against no treatment control. Cell viability was normalised to control (vehicle alone) and dose response curves, and half maximal effective concentration (EC50) values were determined using Graph Pad Prism 6 (nonlinear regression sigmoidal dose-response variable slope).

Experiment [2] concerns A2780 (ovarian). Nature of the experiment: Anti-proliferative activity (Cell-Titre luminescence) against A2780 ovarian cancer cells. To be noted: Homo sapiens, A2780, 72 h, 72 h exposure, Cell-Titre luminescent reagent. The class given is cell-based. The procedure: as §1

For orientation: IC50 means the concentration that inhibits the measured activity by half. For `COc1cccc(CCNc2nc(NCCN3CCN(C)CC3)c3ccccc3n2)c1` [Compound 53, N^2-(3-methoxyphenethyl)-N^4-(2-(4-methylpiperazin-1-yl)ethyl)quinazoline-2,4-diamine], the half-maximal inhibitory concentration (IC50) in experiment [1] is more than 30 µM; in experiment [2] it was 18.2 µM.
For `OCCNc1nc(-c2ccco2)nc2ccccc12` [Compound 22, 2-((2-(furan-2-yl)quinazolin-4-yl)amino)ethan-1-ol] the same measures were more than 30 µM and more than 30 µM.
The matching figures for `COc1ccc(CCNc2nc(NCCN3CCN(C)CC3)c3ccccc3n2)cc1OC` [Compound 137, N^2-(3,4-dimethoxyphenethyl)-N^4-(2-(4-methylpiperazin-1-yl)ethyl)quinazoline-2,4-diamine]: 13.4 µM and 8.71 µM.
The matching figures for `CN1CCN(CCNc2nc(Nc3ccc(C(F)(F)F)cc3)nc3ccccc23)CC1` [Compound 42, N^4-(2-(4-methylpiperazin-1-yl)ethyl)-N^2-(4-(trifluoromethyl)phenyl)quinazoline-2,4-diamine]: 4.94 µM and 1.69 µM.
In the case of `NCCNc1nc(NCCc2cccc(C(F)(F)F)c2)nc2ccccc12` [Compound 118, N^4-(2-aminoethyl)-N^2-(3-(trifluoromethyl)phenethyl)quinazoline-2,4-diamine], the figures for the IC50 in experiment [1] and in experiment [2] were 4.05 µM and 1.92 µM, respectively.
With `COCCNc1nc(NCCc2cccc(C(F)(F)F)c2)nc2ccccc12` [Compound 116, N^4-(2-methoxyethyl)-N^2-(3-(trifluoromethyl)phenethyl)quinazoline-2,4-diamine], the IC50 in experiment [1] worked out at 3.6 µM; in experiment [2] it was 1.39 µM.
Turning to `CN1CCN(CCNc2nc(NCCc3ccc(F)c(F)c3)nc3ccccc23)CC1` [Compound 136, N^2-(3,4-difluorophenethyl)-N^4-(2-(4-methylpiperazin-1-yl)ethyl)quinazoline-2,4-diamine], the IC50 in experiment [1] is 4.77 µM; in experiment [2] it was 1.03 µM.
For `CN1CCN(CCNc2nc(NCCc3cc(F)cc(F)c3)nc3ccccc23)CC1` [Compound 138, N^2-(3,5-difluorophenethyl)-N^4-(2-(4-methylpiperazin-1-yl)ethyl)quinazoline-2,4-diamine] the same measures were 6.07 µM and 1.1 µM.
The matching figures for `CN1CCN(CCNc2nc(-c3ccco3)nc3ccccc23)CC1` [Compound 14, 2-(furan-2-yl)-N-(2-(4-methylpiperazin-1-yl)ethyl)quinazolin-4-amine]: more than 30 µM and more than 30 µM.
`CN1CCN(CCNc2nc(NCCc3cc(Cl)cc(Cl)c3)nc3ccccc23)CC1` [Compound 139, N^2-(3,5-dichlorophenethyl)-N^4-(2-(4-methylpiperazin-1-yl)ethyl)quinazoline-2,4-diamine]: the values for the IC50 in experiment [1] and in experiment [2] were 3.44 µM and 1.1 µM, respectively.
With `CN1CCN(CCNc2nc(SCCc3cccc(C(F)(F)F)c3)nc3ccccc23)CC1` [Compound 151, N-(2-(4-methylpiperazin-1-yl)ethyl)-2-((3-(trifluoromethyl)phenethyl)thio)quinazolin-4-amine], the IC50 was found to be 7.41 µM in experiment [1] and 5.81 µM in experiment [2].
Regarding `CC(C)C(CNc1nc(N2CCCC2)nc2ccccc12)N1CCN(C)CC1` (stereo not drawn) [Compound 8, N-(3-methyl-2-(4-methylpiperazin-1-yl)butyl)-2-(pyrrolidin-1-yl)quinazolin-4-amine], the IC50 in experiment [1] and in experiment [2] was more than 30 µM throughout.
For the compound `OCCCNc1nc(-n2cccc2)nc2ccccc12` [Compound 111, 3-((2-(1H-pyrrol-1-yl)quinazolin-4-yl)amino)propan-1-ol], the IC50 in experiment [1] and in experiment [2] was more than 30 µM in each case.
In the case of `FC(F)(F)c1cccc(CCNc2nc(NCCN3CCOCC3)c3ccccc3n2)c1` [Compound 113, N^4-(2-morpholinoethyl)-N^2-(3-(trifluoromethyl)phenethyl)quinazoline-2,4-diamine], the IC50 stood at 8.79 µM in experiment [1] and 2.54 µM in experiment [2].
The matching figures for `OCCCNc1nc(-c2ccc[nH]2)nc2ccccc12` [Compound 109, 3-((2-(1H-pyrrol-2-yl)quinazolin-4-yl)amino)propan-1-ol]: 21.1 µM and 13 µM.
For `CN1CCN(CCNc2nc(NCCc3cc(F)c(F)c(F)c3)nc3ccccc23)CC1` [Compound 141, N^4-(2-(4-methylpiperazin-1-yl)ethyl)-N^2-(3,4,5-trifluorophenethyl)quinazoline-2,4-diamine] the same measures were 3.3 µM and 1.22 µM.
Regarding `Cc1ccc(CCNc2nc(NCCN3CCN(C)CC3)c3ccccc3n2)cc1` [Compound 127, N^2-(4-methylphenethyl)-N^4-(2-(4-methylpiperazin-1-yl)ethyl)quinazoline-2,4-diamine], the IC50 came out at 2.54 µM in experiment [1] and 2.62 µM in experiment [2].
Turning to `CN1CCN(CCNc2nc(NCCc3cccc(C#N)c3)nc3ccccc23)CC1` [Compound 126, 3-(2-((4-((2-(4-methylpiperazin-1-yl)ethyl)amino)quinazolin-2-yl)amino)ethyl)benzonitrile], the IC50 in experiment [1] came out at 14.8 µM; in experiment [2], 2.5 µM.
For `OCCNc1nc(NCCc2ccc(C(F)(F)F)cc2)nc2ccccc12` [Compound 37, 2-((2-((4-(trifluoromethyl)phenethyl)amino)quinazolin-4-yl)amino)ethan-1-ol] the same measures were 3.82 µM and 3.82 µM.
As for `OCCNc1nc(-c2cccs2)nc2ccccc12` [Compound 18, 2-((2-(thiophen-2-yl)quinazolin-4-yl)amino)ethan-1-ol], the IC50 in experiment [1] and in experiment [2] was more than 30 µM in each case.
As for `CN1CCN(CCNc2nc(NCc3ccccc3)nc3ccccc23)CC1` [Compound 45, N^2-benzyl-N^4-(2-(4-methylpiperazin-1-yl)ethyl)quinazoline-2,4-diamine], the IC50 in experiment [1] was 18.4 µM; in experiment [2], 8.55 µM.
The matching figures for `CN1CCN(CCNc2nc(-c3cccs3)nc3ccccc23)CC1` [Compound 10, N-(2-(4-methylpiperazin-1-yl)ethyl)-2-(thiophen-2-yl)quinazolin-4-amine]: more than 30 µM and more than 30 µM.
With `CC(C)C(CNc1nc(-n2cccc2)nc2ccccc12)N1CCN(C)CC1` (stereo not drawn) [Compound 9, N-(3-methyl-2-(4-methylpiperazin-1-yl)butyl)-2-(1H-pyrrol-1-yl)quinazolin-4-amine], the IC50 came out at 4.94 µM in experiment [1] and 5.79 µM in experiment [2].
For `CN(C)CCCNc1nc(Nc2cccc(F)c2)nc2ccccc12` [Compound 72, N^4-(3-(dimethylamino)propyl)-N^2-(3-fluorophenyl)quinazoline-2,4-diamine] the same measures were 11.2 µM and 3.43 µM.
The matching figures for `c1ccc2c(NCCc3c[nH]cn3)nc(-n3cccc3)nc2c1` [Compound 108, N-(2-(1H-imidazol-4-yl)ethyl)-2-(1H-pyrrol-1-yl)quinazolin-4-amine]: 9.53 µM and 5.79 µM.
Consider `CC(C)C(CNc1nc(-c2ccoc2)nc2ccccc12)N1CCN(C)CC1` (stereo not drawn) [Compound 7, 2-(furan-3-yl)-N-(3-methyl-2-(4-methylpiperazin-1-yl)butyl)quinazolin-4-amine], for which the figures for the IC50 in experiment [1] and in experiment [2] were 10.2 µM and 10.8 µM, respectively.
For `FC(F)(F)c1cccc(CCNc2nc(NCCN3CCCC3)c3ccccc3n2)c1` [Compound 115, N^4-(2-(pyrrolidin-1-yl)ethyl)-N^2-(3-(trifluoromethyl)phenethyl)quinazoline-2,4-diamine] the same measures were 2.52 µM and 1.24 µM.
For `CN1CCN(CCNc2nc(NCCc3ccccc3C(F)(F)F)nc3ccccc23)CC1` [Compound 120, N^4-(2-(4-methylpiperazin-1-yl)ethyl)-N^2-(2-(trifluoromethyl)phenethyl)quinazoline-2,4-diamine] the same measures were 5.28 µM and 1.4 µM.
The matching figures for `COc1ccc(Nc2nc(NCCCN(C)C)c3ccccc3n2)cc1` [Compound 70, N^4-(3-(dimethylamino)propyl)-N^2-(4-methoxyphenyl)quinazoline-2,4-diamine]: 11.7 µM and 8.33 µM.
In the case of `CN1CCN(CCNc2nc(NCCc3ccc(N)cc3)nc3ccccc23)CC1` [Compound 133, N^2-(4-aminophenethyl)-N^4-(2-(4-methylpiperazin-1-yl)ethyl)quinazoline-2,4-diamine], the IC50 in experiment [1] worked out at 14.3 µM; in experiment [2], 7.17 µM.
The matching figures for `COc1cc(CCNc2nc(NCCN3CCN(C)CC3)c3ccccc3n2)cc(OC)c1` [Compound 140, N^2-(3,5-dimethoxyphenethyl)-N^4-(2-(4-methylpiperazin-1-yl)ethyl)quinazoline-2,4-diamine]: 13.2 µM and 7.26 µM.
As to `CN1CCN(CCNc2nc(NCCc3ccccc3F)nc3ccccc23)CC1` [Compound 121, N^2-(2-fluorophenethyl)-N^4-(2-(4-methylpiperazin-1-yl)ethyl)quinazoline-2,4-diamine], the IC50 is 4 µM in experiment [1] and 2.38 µM in experiment [2].
Take `CN(C)CCCNc1nc(Nc2ccc(F)cc2)nc2ccccc12` [Compound 73, N^4-(3-(dimethylamino)propyl)-N^2-(4-fluorophenyl)quinazoline-2,4-diamine]: the values for the IC50 in experiment [1] and in experiment [2] were 11.7 µM and 2.13 µM, respectively.
